Assay [1] deals with first bromodomain of BRD4 (Homo sapiens (Human), UniProt O60885). The experiment in a line: Bromoscan binding assay BRD4 (1). The following applies: for Kd: Bromoscan, geometric mean where multiple measurements have been made; for Selectivity BRD4(2)/BRD4(1): ratio BRD4(2) Kd / BRD4(1) Kd. How it is done: (§1) Compounds were assayed for binding affinity using bromoscan assays and a phosphodiesterase three assay.
(§2) Bromoscan assays were run by DiscoveRx Corporation. The relevant assay names are BRD4 (1) for the first bromodomain of BRD4 and BRD4 (2) for the second bromodomain of BRD4. Further Bromoscan assays covering other bromodomains may be employed to establish the selectivity profile of a compound of interest. To run the Bromoscan assay, a T7 phage strain displaying the relevant bromodomain was grown in parallel in 24-well blocks in an E. coli host derived from the BL21 strain. E. coli were grown to log-phase and infected with T7 phage from a frozen stock (multiplicity of infection=0.4) and incubated with shaking at 32° C. until lysis (90-150 minutes). The lysates were centrifuged (5,000×g) and filtered (0.2 μm) to remove cell debris. […] The liganded beads were blocked with excess biotin and washed with blocking buffer (SeaBlock (Pierce), 1% BSA (bovine serum albumin), 0.05% Tween 20, 1 mM DTT (dithiothreitol)) to remove unbound ligand and to reduce non-specific phage binding. […] Test compounds were prepared as 1000× stocks in 100% DMSO and subsequently diluted 1:10 in monoethylene glycol (MEG) to create stocks at 100× the screening concentration (resulting stock solution is 10% DMSO/90% MEG). The compounds were then diluted directly into the assays such that the final concentration of DMSO and MEG were 0.1% and 0.9%, respectively. All reactions were performed in polystyrene 96-well plates in a final volume of 0.135 ml. […] The bromodomain concentration in the eluates was measured by qPCR (quantitative real-time polymerase chain reaction). Binding constants (Kds) were calculated with a standard dose-response curve using the Hill equation: Response=Blackground+((Signal-Background)/(1+Kd^Hill Slope/Dose^Hill Slope)). The Hill Slope was set to −1. Curves were fitted using a non-linear least square fit with the Levenberg-Marquardt algorithm.

Assay [2] deals with second bromodomain of BRD4 (Homo sapiens (Human), UniProt O60885). The experiment in a line: Bromoscan binding assay BRD4 (2). As to conditions: geometric mean where multiple measurements have been made. How it is done:
as §1, §2

The target of assay [3] is human recombinant phosphodiesterase (PDE3A) (Homo sapiens (Human), UniProt Q14432). The experiment in a line: Radiometric PDE3A assay. In kind it is biochemical. The following applies: [3H]-cAMP hydrolysis, 20 minutes at 30° C. How it is done:
Partially purified human recombinant phosphodiesterase (PDE3A) was obtained by cloning cDNA and expressing in S. frugiperda insect cells using a baculovirus expression system. Cells were harvested from culture by centrifuging at 400×g for 5 minutes. Cell pellet was resuspended in 20 ml of RIPA Buffer (150 mM NaCl, 10 mM Tris, 0.1% NP-40, pH8.3), 4 ml/200 ml of culture, plus protease inhibitors (100 μl/10 ml) and incubated on ice for 10-20 minutes then spun at 3500×g for 10 minutes at 4° C. Supernatant was kept and the pellet thrown away. Tritium-labeled cyclic AMP was hydrolysed to 5′-AMP by PDE3A. The 5′-AMP was then further hydrolysed to adenosine by nucleotidase in snake venom. An anion-exchange resin binds all charged nucleotides and leaves [3H]adenosine as the only labeled compound to be counted by liquid scintillation. The radiometric assay method is a modification of the two-step method of Thompson and Appleman [Biochemistry 10; 311-316; 1971], adapted for a 96 well plate format. 50 μl of diluted PDE3A was incubated with 50 μl of [3H]-CAMP (specific activity 25 Ci/mmol) and 11 μl of 50% DMSO (or compound dilution) for 20 minutes at 30° C. The enzyme was diluted in 20 mM Tris HCl pH7.4 (×2.2 final concentration) and [3H]-cAMP were diluted in 10 mM MgCl2, 40 mM Tris HCl pH 7.4 (×2.2 final concentration). Reactions were carried out in Greiner 96 deep well 1 ml master-block. The plates were centrifuged for 9 seconds before the 20 minutes incubation. The reaction was terminated by denaturing the PDE enzyme (at 70° C. for 2 minutes, plates were left to cool on ice for 10 minutes) after which 25 μl snake venom nucleotidase (225 ug/ml final concentration) was added and incubated for 10 minutes (at 30° C.), plates were centrifuged for 9 seconds before incubation. After incubation 200 μl Dowex resin (1×8, 200-400 mesh) was added and the plate was shaken for 20 minutes then centrifuged for 3 minutes at 1000×g. 50 μl of supernatant was removed and added to 200 μl of MicroScint-20 in white plates (Greiner 96-well Optiplate) and shaken for 30 minutes before reading on Perkin Elmer TopCount Scintillation Counter. GraphPad Prism™ was used to calculate the IC50 values using a sigmoidal dose response (variable slope). The analysis measures 4 parameters including the best fit values for the bottom and top fit of the curve, the hill slope value and the IC50 value.

Where only a bound is given, the exact number is not on record here.

In general, Kd refers to the equilibrium constant for the complex coming apart. Usually IC50 stands for the concentration needed to halve the response being measured.

Sequence of human recombinant phosphodiesterase (PDE3A) (Q14432 whole entry): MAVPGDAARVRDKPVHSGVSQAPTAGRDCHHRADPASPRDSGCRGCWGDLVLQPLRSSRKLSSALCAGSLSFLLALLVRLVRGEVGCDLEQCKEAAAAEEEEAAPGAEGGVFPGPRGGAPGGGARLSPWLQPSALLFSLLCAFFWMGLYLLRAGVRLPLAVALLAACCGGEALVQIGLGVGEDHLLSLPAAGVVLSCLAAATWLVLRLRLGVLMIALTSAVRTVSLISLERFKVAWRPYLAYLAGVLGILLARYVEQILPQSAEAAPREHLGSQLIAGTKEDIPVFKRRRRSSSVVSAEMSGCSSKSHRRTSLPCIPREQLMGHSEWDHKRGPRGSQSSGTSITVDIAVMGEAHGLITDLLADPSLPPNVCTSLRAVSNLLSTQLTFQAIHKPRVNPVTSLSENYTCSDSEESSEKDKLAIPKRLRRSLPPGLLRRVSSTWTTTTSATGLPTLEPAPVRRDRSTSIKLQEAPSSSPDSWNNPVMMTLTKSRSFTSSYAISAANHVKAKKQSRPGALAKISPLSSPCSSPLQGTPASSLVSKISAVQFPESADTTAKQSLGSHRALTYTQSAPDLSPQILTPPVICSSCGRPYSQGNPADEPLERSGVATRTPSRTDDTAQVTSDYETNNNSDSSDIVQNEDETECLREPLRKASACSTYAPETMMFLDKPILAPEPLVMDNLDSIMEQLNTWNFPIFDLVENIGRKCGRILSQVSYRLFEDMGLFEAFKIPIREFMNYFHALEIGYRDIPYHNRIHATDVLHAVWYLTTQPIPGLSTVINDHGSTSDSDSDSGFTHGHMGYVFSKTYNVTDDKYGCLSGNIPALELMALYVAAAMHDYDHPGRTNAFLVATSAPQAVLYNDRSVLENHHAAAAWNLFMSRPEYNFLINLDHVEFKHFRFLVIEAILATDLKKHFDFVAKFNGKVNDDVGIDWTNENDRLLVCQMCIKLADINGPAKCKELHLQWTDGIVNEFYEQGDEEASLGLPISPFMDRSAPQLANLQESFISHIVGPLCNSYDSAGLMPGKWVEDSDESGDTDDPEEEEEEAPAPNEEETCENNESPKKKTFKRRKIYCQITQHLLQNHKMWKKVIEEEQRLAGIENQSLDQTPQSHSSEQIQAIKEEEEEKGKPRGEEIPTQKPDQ

Regarding `Cc1cc(=O)[nH]c2c(OCCO)cc(NC(=O)c3cc4c(nc3N3CCOCC3)COC4)cc12` [Example 36, N-[8-(2-hydroxyethoxy)-4-methyl-2-oxo-1H-quinolin-6-yl]-2-morpholino-5,7-dihydrofuro[3,4-b]pyridine-3-carboxamide], in assay [1], the equilibrium dissociation constant (Kd) is 27 nM and the “Selectivity BRD4(2)/BRD4(1)” value is recorded as 15. Besides, the Kd in assay [2] came out at 400 nM. Also, in assay [3], the IC50 is > 10000 nM.
In the case of `Cc1cc(=O)[nH]c2c(OC3CNC3)cc(NC(=O)c3cc4c(nc3N3CCOCC3)COC4)cc12` [Example 37, N-[8-(azetidin-3-yloxy)-4-methyl-2-oxo-1H-quinolin-6-yl]-2-morpholino-5,7-dihydrofuro[3,4-b]pyridine-3-carboxamide], in assay [1], the affinity, expressed as Kd, was 35 nM and the “Selectivity BRD4(2)/BRD4(1)” value is reported as >286. Besides, the Kd in assay [2] was > 10000 nM. The IC50 in assay [3] was > 10000 nM.
With `CNCCOc1cc(NC(=O)c2cc3c(nc2N2CCOCC2)COC3)cc2c(C)cc(=O)[nH]c12` [Example 38, N-[4-methyl-8-[2-(methylamino)ethoxy]-2-oxo-1H-quinolin-6-yl]-2-morpholino-5,7-dihydrofuro[3,4-b]pyridine-3-carboxamide], in assay [1], the Kd is 20 nM and the “Selectivity BRD4(2)/BRD4(1)” value is on record as >250. Besides, in assay [2], the Kd was > 5000 nM. The IC50 in assay [3] was > 10000 nM.
For `COc1cc(NC(=O)c2cc3c(nc2N2C4CCC2CC4)COC3)cc2c(C)cc(=O)[nH]c12` [Example 39, 2-(7-azabicyclo[2.2.1]heptan-7-yl)-N-(8-methoxy-4-methyl-2-oxo-1H-quinolin-6-yl)-5,7-dihydrofuro[3,4-b]pyridine-3-carboxamide] the same measures were 7 nM, 43, 300 nM and > 10000 nM.
The like results for `COc1cc(NC(=O)c2cc3c(nc2N2CC[C@H](F)C2)COC3)cc2c(C)cc(=O)[nH]c12` [Example 41, 2-[(3S)-3-fluoropyrrolidin-1-yl]-N-(8-methoxy-4-methyl-2-oxo-1H-quinolin-6-yl)-5,7-dihydrofuro[3,4-b]pyridine-3-carboxamide] were, in that order, 92 nM, >109, > 10000 nM and > 10000 nM.

Values taken from patent US20250382308A1, “COMPOUNDS ACTIVE TOWARDS BROMODOMAINS” (NUEVOLUTION A/S, priority 2022, published 2025).
